Test results published in patent US11324709B2, “Fatty acid amides and uses thereof in the treatment of addiction disorder and addiction related conditions” (Yissum Research Development Company of The Hebrew …, priority 2017, dated 2022).
Like-named read-outs stand apart in the source and are kept apart here.

Experiments:
Sprague-Dawley rats [1] = assay: Potential of OlGly to produce a CPP or CPA (place conditioning, Experiment 1); assay type: in vivo, rat; conditions: 5 mg/kg ip
Protocol: Rats (n=12) received two conditioning trials with oleoyl glycine. On each trial they received intraperitoneal (ip) injections of 5 mg/kg oleoyl glycine or VEH (24 hr apart; counterbalanced order) 20 minutes prior to placement in the conditioning box lined with the grid or hole floor (counterbalanced) for 20 minutes.

Sprague-Dawley rats [2] = assay: Establishment of naloxone precipitated MWD-induced conditioned place aversion (Experiment 2); assay type: in vivo, rat
Protocol: Rats (n=22) received two 3-day conditioning cycles in order to attain a naloxone precipitated MWD-induced place avoidance. On Day 1, the floor opposite to the assigned drug floor was paired with a s.c. saline injection. Ten minutes after a saline injection, the rats were placed into the conditioning box with the assigned saline-paired floor for 20 minutes while their locomotion was tracked with Ethovision. On Day 2, the rats received a high dose of morphine (20 mg/kg) s.c., 24 h after the saline conditioning trial the previous day. After the injection, they were placed in an empty shoebox cage and monitored for signs of respiratory distress and stimulated when necessary until they recovered and were returned to the home cage. On Day 3, 24 h post morphine injections, the rats were injected with either VEH (n=12) or OlGly (n=12) 10 min prior to receiving an s.c. injection of naloxone. Ten min later they were placed into the conditioning box with the assigned naloxone-paired floor for 20 minutes while their locomotion was tracked using Ethovision. Four days later, all rats underwent a second 3-day conditioning cycle. Five days following the last naloxone trial, a 10 min drug-free test trial was performed. The test trial consisted of the same procedures as the pre-test trial, but rats were given a s.c. saline injection 10 min prior to the test. […]

ICR mice [3] = assay: Morphine CPP in mice; assay type: in vivo, mouse; conditions: OlGly 30 mg/kg i.p., morphine 10 mg/kg s.c. for 3 days
Protocol: Male C57BL/6 mice (Charles River, Italy) weighing 18-20 g were used for the mild TBI Weight Drop (WD) model. Mice were housed three per cage under controlled illumination (12 h light/dark cycle; light on 6:00 A.M.) and standard environmental conditions (ambient temperature 20-22° C., humidity 55-60%) for at least 1 week before the beginning of experiments. Animal chow and tap water were available ad libitum. Male ICR mice (6-8 weeks old; Harlan, Indianapolis, Ind.) with a body mass of 27-32 g served as subjects in all in vivo pharmacology experiments. Mice were group-housed (four per cage) on a 12/12 light/dark cycle (lights on at 0600 h) and given food and water ad libitum. All animal protocols were approved by the Virginia Commonwealth University Institutional Animal Care and Use Committee, were in accordance with the National Institutes of Health Guide for the Care and Use of Laboratory Animals (Institute of Laboratory Animal Resources, 2011), and by the Animal Ethics Committee of The Second University of Naples, in compliance with Italian (D.L. 116/92) and European Commission (O.J. of E.C. L358/1 18/12/86) regulations on the protection of laboratory animals. All efforts were made to reduce both animal numbers and suffering during the experiments. […]

ICR mice [4] = assay: Cannabinoid tetrad behavioral assessment; assay type: in vivo, mouse; conditions: i.p.
Protocol: Male C57BL/6 mice (Charles River, Italy) weighing 18-20 g were used for the mild TBI Weight Drop (WD) model. Mice were housed three per cage under controlled illumination (12 h light/dark cycle; light on 6:00 A.M.) and standard environmental conditions (ambient temperature 20-22° C., humidity 55-60%) for at least 1 week before the beginning of experiments. Animal chow and tap water were available ad libitum. Male ICR mice (6-8 weeks old; Harlan, Indianapolis, Ind.) with a body mass of 27-32 g served as subjects in all in vivo pharmacology experiments. Mice were group-housed (four per cage) on a 12/12 light/dark cycle (lights on at 0600 h) and given food and water ad libitum. All animal protocols were approved by the Virginia Commonwealth University Institutional Animal Care and Use Committee, were in accordance with the National Institutes of Health Guide for the Care and Use of Laboratory Animals (Institute of Laboratory Animal Resources, 2011), and by the Animal Ethics Committee of The Second University of Naples, in compliance with Italian (D.L. 116/92) and European Commission (O.J. of E.C. L358/1 18/12/86) regulations on the protection of laboratory animals. All efforts were made to reduce both animal numbers and suffering during the experiments.
[^2H]8AEA, [^2H]52-AG, [^2H]4 PEA, [^2H]4 OEA, [^2H]8 N-arachidonoyldopamine (NADA), [^2H]8AraSer and [^2H]8AraGly were purchased from Cayman Chemicals (MI, USA). OlGly was synthetized in the Mechoulam laboratory and CP55,940 ((−)-cis-3-[2-hydroxy-4-(1,1-dimethylheptyl)phenyl]-trans-4-(3-hydroxypropyl)cyclohexanol) and morphine sulfate were generously provided by NIDA (Rockville, Md.). OlGly and CP55,940 were dissolved in a vehicle solution consisting of ethanol (5% of total volume), alkamuls-620 (Sanofi-Aventis, Bridgewater, N.J.) (5% of total volume), and saline (0.9% NaCl) (90% of total volume). Oleoyl glycine and CP55,940 were given via the intraperitoneal (i.p.) route of administration. (−)-Nicotine hydrogen tartrate [(−)-1-methyl-2-(3-pyridyl)pyrrolidine (+)-bitartrate] and mecamylamine HCl were purchased from Sigma-Aldrich Inc. (St. Louis, Mo., USA). Morphine sulfate [morphine hemi[sulfate pentahydrate]] Nicotine and mecamylamine (2 mg/kg) were dissolved in physiological saline and given via the subcutaneous (s.c.) route of administration in a volume of 10 ml/kg. For the nicotine CPP study, 0.5 mg/kg nicotine dose was used because this dose reliably produces significant CPP in ICR mouse (18). Morphine CPP was performed with 10 mg/kg (s.c.) as recently described (19). For nicotine withdrawal studies, 24 mg/kg/day nicotine or saline was continuously perfused for 14 days using s.c. osmotic minipumps (model 2000; Alzet Corporation, Cupertino, Calif.) that were implanted under isoflurane anesthesia. This prolonged nicotine administration regimen reliably produces significant withdrawal syndrome in the three behavioral paradigms used here.
Mice were acclimated to the test environment for at least 1 h prior to testing for tetrad components: spontaneous activity, catalepsy, antinociception, and hypothermia (7-9). In the locomotor studies, subjects were administered vehicle or drug and 5 min later were placed into clear acrylic boxes (approx. 44.5 cm×22.25 cm×20.0 cm) contained within sound-attenuating cabinets equipped with an LED light source and fans for general air circulation and creation of white noise. The distance traveled (cm) and time spent immobile (s) for each mouse were collected and recorded for 10 min using Fire-i™ digital cameras purchased from Unibrain (San Ramon, Calif., USA) and ANY-maze™ video tracking software purchased from Stoelting Company (Wood Dale, Ill., USA). Mice were assessed for baseline tail withdrawal latencies and body temperature, given an intraperitoneal (i.p.) injection of vehicle or drug (OlGly), and 30 min later assessed in the following order: catalepsy, tail withdrawal test, and body temperature. […]

Sprague-Dawley rats [5] = test system: Sprague-Dawley rats
mice = conditions: cited from earlier work
nicotine-dependent mice = conditions: cited from earlier work

motoric effects during conditioning (activity measure) compared to VEH (Sprague-Dawley rats [1]): no motoric effects
activity during the conditioning trials (Sprague-Dawley rats [2]; pretreatment with 5 mg/kg OlGly, naloxone conditioning trials): did not modify activity
melting point: 93 to 94 °C (dec.)
SMILES: CCCCCCCC/C=C\CCCCCCCC(=O)NCC(=O)O [OlGly, oleoyl glycine]
time spent on the oleoyl glycine paired floor (mean) (Sprague-Dawley rats [1]; 10 min drug-free test trial, VEH paired floor 232.16 sec): 299.00 s
preference or aversion for the drug paired floor (Sprague-Dawley rats [1]; two conditioning trials, drug-free test trial): did not produce a significant preference or aversion
establishment of the naloxone precipitated MWD-induced CPA (Sprague-Dawley rats [2]; 5 mg/kg OlGly 10 min prior to naloxone, drug by floor interaction p=0.017): significantly interfered
expression of morphine CPP (ICR mice [3]): did not attenuate
cataleptic responses (bar test) (ICR mice [4]): did not elicit cataleptic responses
antinociception (tail immersion) (ICR mice [4]; FIG. 5A): did not produce
hypothermia (ICR mice [4]; FIG. 5B): did not produce
motor behavior: distance traveled (ICR mice [4]; FIG. 5C): did not produce
motor behavior: speed (ICR mice [4]; FIG. 5D): did not produce
motor behavior: immobility time (ICR mice [4]; FIG. 5E): did not produce
establishment of a morphine-induced place preference (Sprague-Dawley rats [5]; 5 mg/kg OlGly i.p. 10 min prior to morphine 10 mg/kg s.c.): did not modify
establishment of a morphine-induced place preference (Sprague-Dawley rats [5]; 30 mg/kg OlGly i.p. 10 min prior to morphine 10 mg/kg s.c.): did not modify
nicotine-induced place preference (mice): interfered
place preference or place aversion produced by OlGly itself (mice): neither a place preference nor a place aversion
precipitated withdrawal responses (nicotine-dependent mice): reduced
withdrawal induced place aversion (nicotine-dependent mice): reduced
